Entries after “also recorded” stand apart in the source; their conditions may differ. Like-named read-outs stand apart in the source and are kept apart here.
Legend:
Format in all cases: cell-based, human
FOXO3 = assay: qPCR analysis of FOXO3-regulated genes; details: for fold induction at 10 µM: Homo sapiens; for K = Sestrin induction: score
How it was run: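 WI-38 cells treated with compound at 10 μM for 24 h, followed by Cells-to-Ct RT-qPCR of FOXO3 target genes normalised to B2M, PPIA and GAPDH. FOXO3 or NRF2 dependence tested by prior 10 nM siRNA knockdown (36 h transfection, compound added ~24 h after replating).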

NRF2 = assay: qPCR analysis of NRF2-regulated genes; details: for Potential NRF2 Activation (>=2 target genes induced, by >=1.5-fold): Assay 13(p); for fold induction at 10 µM: Homo sapiens
How it was run: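 WI-38 cells treated with compound at 10 μM for 24 hrs, then processed by Cells-to-Ct for RNA isolation, RT and qPCR of NRF2-regulated genes (HMOX1, NQO1, GCLC, GSTM1). Expression normalized to B2M, PPIA and GAPDH; siRNA knockdown of FOXO3 or NRF2 (10 nM) preceded treatment in some runs.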

mTOR = mTOR inhibition (RPS6 phosphorylation status), In-Cell Western
How it was run: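 WI-38 cells exposed to compounds at 5, 10 and 20 μM for 24 hrs. Fixed cells co-stained overnight at 4° C with anti-RPS and anti-pRPS6 (Ser-235/236) antibodies, then DyLight 680/800 secondaries. Phospho-RPS6 relative to total RPS6 read by near-infrared In-Cell Western imaging.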

[1] = 10 μM, 24 hrs, WI-38 cells, qPCR, normalized to B2M, n = 4, read-out: TXNIP expression, normalized fold change (FOXO3-regulated gene)
[2] = WI-38 cells, 10 μM, 24 hrs, n=4, qPCR normalized by B2M, read-out: DDB1 Normalized fold change
[3] = WI-38 cells, 10 μM, 24 hrs, n=4, qPCR normalized by B2M, read-out: GADD45A Normalized fold change
[4] = WI-38 cells, 10 μM, 24 hrs, n=4, qPCR normalized by B2M, read-out: SESN1 Normalized fold change
[5] = fold change, qPCR, WI-38 cells, 10 μM, 24 hrs, read-out: Summary of effects on FOXO3-regulated genes: TXNIP
[6] = qPCR, WI-38 cells, 10 μM, n=4, 24 hrs, normalized by B2M, read-out: CAT Normalized fold change
[7] = qPCR, WI-38 cells, 10 μM, n=4, 24 hrs, normalized by B2M, read-out: SOD2 Normalized fold change
[8] = qPCR, WI-38 cells, 10 μM, n=4, 24 hrs, normalized by B2M, read-out: TXNIP Normalized fold change
[9] = 24 h, Assay 12(o), at 10 uM, qPCR, read-out: Induction of NRF2-regulated genes: GCLC normalized fold-change
[10] = 24 h, Assay 12(o), at 10 uM, qPCR, read-out: Induction of NRF2-regulated genes: NQO1 normalized fold-change
[11] = rounded fold change, WI-38 cells, 10 μM, 24 hrs (RP11 for Gr-1D, RP29 for Gr-4D), read-out: Summary of effects on NRF2-regulated genes: HMOX1
[12] = rounded fold change, WI-38 cells, 10 μM, 24 hrs (RP29 for Gr-4D), read-out: Summary of effects on NRF2-regulated genes: NQO1
[13] = rounded fold change, WI-38 cells, 10 μM, 24 hrs, read-out: Summary of effects on NRF2-regulated genes: GCLC
[14] = 10 μM, 24 hrs, WI-38, read-out: Expression of at least two NRF2 target genes
[15] = 10 μM, 24 hrs, WI-38 cells, qPCR, normalized to B2M, n = 4, read-out: GCLC expression, normalized fold change (NRF2-regulated gene)
[16] = 10 μM, 24 hrs, WI-38 cells, qPCR, normalized to B2M, n = 4, read-out: HMOX1 expression, normalized fold change (NRF2-regulated gene)
[17] = 10 μM, 24 hrs, WI-38 cells, qPCR, normalized to B2M, n = 4, read-out: NQO1 expression, normalized fold change (NRF2-regulated gene)
[18] = WI-38 cells, 10 μM, 24 hrs, n=4, qPCR normalized by B2M, read-out: GCLC Normalized fold change
[19] = WI-38 cells, 10 μM, 24 hrs, n=4, qPCR normalized by B2M, read-out: GSTM1 Normalized fold change
[20] = WI-38 cells, 10 μM, 24 hrs, n=4, qPCR normalized by B2M, read-out: HMOX1 Normalized fold change
[21] = WI-38 cells, 10 μM, 24 hrs, n=4, qPCR normalized by B2M, read-out: NQO1 Normalized fold change
[22] = 24 h, Assay 10(m), at 10 uM, qPCR, read-out: Induction of FOXO3-regulated genes: DDB1 normalized fold-change
[23] = 24 h, Assay 10(m), at 10 uM, qPCR, read-out: Induction of FOXO3-regulated genes: SESN1 normalized fold-change
[24] = WI-38, 24 h, read-out: SESN1 expression
[25] = 10 μM, 24 hrs, WI-38 cells, qPCR, normalized to B2M, n = 4, read-out: DDB1 expression, normalized fold change (FOXO3-regulated gene)
[26] = 10 μM, 24 hrs, WI-38 cells, qPCR, normalized to B2M, n = 4, read-out: SESN1 expression, normalized fold change (FOXO3-regulated gene)
[27] = fold change, qPCR, WI-38 cells, 10 μM, 24 hrs, read-out: Summary of effects on FOXO3-regulated genes: DDB1
[28] = fold change, qPCR, WI-38 cells, 10 μM, 24 hrs, read-out: Summary of effects on FOXO3-regulated genes: SESN1

Row | SMILES | E = Potential FOXO3 Activation (FOXO3; 2-point score) | fold induction at 10 µM (FOXO3; [1]) | fold induction at 10 µM (FOXO3; [2]) | fold induction at 10 µM (FOXO3; [3]) | fold induction at 10 µM (FOXO3; [4]) | fold induction at 10 µM (FOXO3; [5]) | fold induction at 10 µM (FOXO3; [6]) | fold induction at 10 µM (FOXO3; [7]) | fold induction at 10 µM (FOXO3; [8]) | K = Sestrin induction (FOXO3) | E = Potential FOXO3 Activation (FOXO3; summary score) | F = Potential NRF2 Activation (NRF2; 2-point score) | Potential NRF2 Activation (>=2 target genes induced, by >=1.5-fold) (NRF2) | fold induction at 10 µM (NRF2; [18]) | fold induction at 10 µM (NRF2; [19]) | fold induction at 10 µM (NRF2; [20]) | fold induction at 10 µM (NRF2; [21]) | F = Potential NRF2 Activation (NRF2; summary score) | G = mTOR down-regulation (mTOR; 2-point score) | G = mTOR down-regulation (mTOR; summary score) | further results
1 | Cc1cc(C)c(C(=O)/C=C/c2ccccc2F)c(O)n1 [O18] | 0 | 0.3 | 1.33 | 0.861 | 1.06 | 0.3 | 1.47 | 1.04 | 0.297 | 0 | 0 | 2 | YES | 2.1 | 1.52 | 23.8 | 2.94 | 2 | 0 | 0 | fold induction at 10 µM (FOXO3; 24 h, Assay 10(m), at 10 uM, qPCR, read-out: Induction of FOXO3-regulated genes: TXNIP normalized fold-change): 0.3; fold induction at 10 µM (NRF2; [9]): 2.1; fold induction at 10 µM (NRF2; 24 h, Assay 12(o), at 10 uM, qPCR, read-out: Induction of NRF2-regulated genes: GSTM1 normalized fold-change): 1.52; fold induction at 10 µM (NRF2; 24 h, Assay 12(o), at 10 uM, qPCR, read-out: Induction of NRF2-regulated genes: HMOX1 normalized fold-change): 23.8; fold induction at 10 µM (NRF2; [10]): 2.94; fold induction at 10 µM (NRF2; [11]): 23.8; fold induction at 10 µM (NRF2; rounded fold change, WI-38 cells, 10 μM, 24 hrs (RP29 for Gr-4D), read-out: Summary of effects on NRF2-regulated genes: GSTM1): 1.52; fold induction at 10 µM (NRF2; [12]): 2.94; fold induction at 10 µM (NRF2; [13]): 2.1; fold induction at 10 µM (NRF2; [14]): > 1.5; fold induction at 10 µM (NRF2; [15]): 2.1; fold induction at 10 µM (NRF2; 10 μM, 24 hrs, WI-38 cells, qPCR, normalized to B2M, n = 4, read-out: GSTM1 expression, normalized fold change (NRF2-regulated gene)): 1.52; fold induction at 10 µM (NRF2; [16]): 23.8; fold induction at 10 µM (NRF2; [17]): 2.94
2 | COC(=O)CCc1sc2c(c1[N+](=O)[O-])NC(=O)CCC2 [O20] | 0 | – | 1.25 | 1.04 | 1.73 | – | 1.35 | 1.09 | 1.12 | 1 | 0 | 2 | YES | 1.76 | 1.36 | 0.937 | 2.49 | 2 | 0 | 0 | Induction of at least two of five FOXO3-regulated genes (SOD2, GADD45A, CAT, DDB1, TXNIP) (FOXO3; 10 μM, 24 hrs, WI-38): significant induction; also recorded: significant, induction; fold induction at 10 µM (FOXO3; 24 h, Assay 10(m), at 10 uM, qPCR, read-out: Induction of FOXO3-regulated genes: CAT normalized fold-change): 1.35; fold induction at 10 µM (FOXO3; [22]): 1.25; fold induction at 10 µM (FOXO3; [23]): 1.73; fold induction at 10 µM (FOXO3; [24]): > 1.5; fold induction at 10 µM (FOXO3; 10 μM, 24 hrs, WI-38 cells, qPCR, normalized to B2M, n = 4, read-out: CAT expression, normalized fold change (FOXO3-regulated gene)): 1.35; fold induction at 10 µM (FOXO3; [25]): 1.25; fold induction at 10 µM (FOXO3; [26]): 1.73; fold induction at 10 µM (FOXO3; fold change, qPCR, WI-38 cells, 10 μM, 24 hrs, read-out: Summary of effects on FOXO3-regulated genes: CAT): 1.35; fold induction at 10 µM (FOXO3; [27]): 1.25; fold induction at 10 µM (FOXO3; [28]): 1.73; fold induction at 10 µM (NRF2; [9]): 1.76; fold induction at 10 µM (NRF2; [10]): 2.49; fold induction at 10 µM (NRF2; [12]): 2.49; fold induction at 10 µM (NRF2; [13]): 1.76; fold induction at 10 µM (NRF2; [14]): > 1.5; fold induction at 10 µM (NRF2; [15]): 1.76; fold induction at 10 µM (NRF2; [17]): 2.49
3 | O=C(Nc1cccc(Cl)c1)c1ccc([N+](=O)[O-])o1 [Gr-1D] | 0 | 0.62 | 1.18 | 1.92 | 1.73 | 0.62 | 0.953 | 1.42 | 0.621 | 1 | 0 | 0 | – | 1.08 | 1.17 | 4.68 | 0.878 | 0 | 0 | 0 | fold induction at 10 µM (FOXO3; [22]): 1.13; fold induction at 10 µM (FOXO3; [23]): 1.91; fold induction at 10 µM (FOXO3; [24]): > 1.5; fold induction at 10 µM (FOXO3; [25]): 1.18; fold induction at 10 µM (FOXO3; [26]): 1.73; fold induction at 10 µM (FOXO3; [27]): 1.18; fold induction at 10 µM (FOXO3; [28]): 1.73; fold induction at 10 µM (NRF2; [11]): 4.68; fold induction at 10 µM (NRF2; [16]): 4.68; Summary of effects on NRF2-regulated genes: HMOX1, second run (NRF2; run RP42 (Gr-1D) / RP52 (Gr-4D), WI-38 cells, 10 μM): 5.86,; Summary of effects on NRF2-regulated genes: GCLC, second run (NRF2; run RP42 (Gr-1D), WI-38 cells, 10 μM): 0.79,
